Measured values: ChEMBL document CHEMBL4680246, “Design, synthesis and biological evaluation of novel O-carbamoyl ferulamide derivatives as multi-target-directed ligands for the treatment of Alzheimer's disease” (Eur J Med Chem, 2020)
Active and inactive are the calls of the source. No cut-off for these calls is given here.

Legend:
[1] = Effect on tau protein level in mouse HT22 cells transfected with pRK5-GFP-Tau plasmid assessed as fluorescence intensity at 5 uM by fluorescence microscopy (Rvb <= 40.9); format: functional, HT-22
SH-SY5Y = test: Neuroprotective activity against amyloid beta (1 to 42)-induced cytotoxicity in human SH-SY5Y cells assessed as cell viability at 10 uM by MTT assay (reference value: 50.3%); format: functional; conditions: read-out: Activity
[2] = biological target: Amyloid-beta precursor protein (Homo sapiens) (UniProt P05067); test: Inhibition of self-induced Amyloid beta (1 to 42 residues) (unknown origin) aggregation at 25 uM measured after 24 hrs by thioflavin T-based fluorimetric assay relative to control
Amyloid-beta precursor protein (Homo sapiens), sequence (P05067 whole entry, the tested form may be a part): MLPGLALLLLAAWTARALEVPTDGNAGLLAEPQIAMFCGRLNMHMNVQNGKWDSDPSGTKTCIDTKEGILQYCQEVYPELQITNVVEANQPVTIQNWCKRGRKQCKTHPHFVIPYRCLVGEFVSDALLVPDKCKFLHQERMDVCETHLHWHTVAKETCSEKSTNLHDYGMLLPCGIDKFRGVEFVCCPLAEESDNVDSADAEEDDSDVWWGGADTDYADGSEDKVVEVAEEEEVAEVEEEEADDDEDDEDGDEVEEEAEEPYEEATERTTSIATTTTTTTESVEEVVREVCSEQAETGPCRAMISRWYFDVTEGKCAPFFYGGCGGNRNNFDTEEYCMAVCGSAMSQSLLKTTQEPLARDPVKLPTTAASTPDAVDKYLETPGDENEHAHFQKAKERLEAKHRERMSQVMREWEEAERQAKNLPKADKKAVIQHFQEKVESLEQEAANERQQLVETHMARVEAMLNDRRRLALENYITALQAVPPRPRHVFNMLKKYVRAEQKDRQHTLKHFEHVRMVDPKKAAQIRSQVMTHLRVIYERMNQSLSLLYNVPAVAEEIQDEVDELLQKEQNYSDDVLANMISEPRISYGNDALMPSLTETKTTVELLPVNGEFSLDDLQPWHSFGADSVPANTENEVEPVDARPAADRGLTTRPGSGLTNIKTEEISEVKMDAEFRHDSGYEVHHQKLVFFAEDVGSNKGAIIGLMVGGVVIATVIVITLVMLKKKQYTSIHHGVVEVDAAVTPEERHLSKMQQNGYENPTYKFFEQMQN

[3] = biological target: T1, Amine oxidase [flavin-containing] A (Homo sapiens, UniProt P21397); test: Inhibition of recombinant human MAO-A
T1 sequence (P21397 whole entry): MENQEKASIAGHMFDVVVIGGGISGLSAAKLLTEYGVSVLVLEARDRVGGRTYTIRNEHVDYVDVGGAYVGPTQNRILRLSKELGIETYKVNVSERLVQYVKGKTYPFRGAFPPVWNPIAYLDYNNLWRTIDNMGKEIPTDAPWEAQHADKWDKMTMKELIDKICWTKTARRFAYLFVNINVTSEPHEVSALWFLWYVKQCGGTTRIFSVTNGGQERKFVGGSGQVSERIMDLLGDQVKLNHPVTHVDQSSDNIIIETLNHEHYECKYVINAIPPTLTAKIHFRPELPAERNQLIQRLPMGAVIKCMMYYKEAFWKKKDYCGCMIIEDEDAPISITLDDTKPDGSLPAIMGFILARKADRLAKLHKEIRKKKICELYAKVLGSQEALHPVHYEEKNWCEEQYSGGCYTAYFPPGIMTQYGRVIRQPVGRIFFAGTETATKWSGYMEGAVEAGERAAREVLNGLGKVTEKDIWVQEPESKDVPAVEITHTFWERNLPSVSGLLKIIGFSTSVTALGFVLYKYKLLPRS

Homo sapiens = species on record: Homo sapiens; test: Selectivity index, ratio of IC50 for recombinant human MAO-A to IC50 for recombinant human MAO-B
Cholinesterase = Cholinesterase (Homo sapiens, UniProt P06276); test: Inhibition of human serum BuChE assessed as residual activity at IC50 using acetylcholine iodide as substrate measured after dilution by Ellman's method relative to control
Cholinesterase, sequence (P06276 whole entry): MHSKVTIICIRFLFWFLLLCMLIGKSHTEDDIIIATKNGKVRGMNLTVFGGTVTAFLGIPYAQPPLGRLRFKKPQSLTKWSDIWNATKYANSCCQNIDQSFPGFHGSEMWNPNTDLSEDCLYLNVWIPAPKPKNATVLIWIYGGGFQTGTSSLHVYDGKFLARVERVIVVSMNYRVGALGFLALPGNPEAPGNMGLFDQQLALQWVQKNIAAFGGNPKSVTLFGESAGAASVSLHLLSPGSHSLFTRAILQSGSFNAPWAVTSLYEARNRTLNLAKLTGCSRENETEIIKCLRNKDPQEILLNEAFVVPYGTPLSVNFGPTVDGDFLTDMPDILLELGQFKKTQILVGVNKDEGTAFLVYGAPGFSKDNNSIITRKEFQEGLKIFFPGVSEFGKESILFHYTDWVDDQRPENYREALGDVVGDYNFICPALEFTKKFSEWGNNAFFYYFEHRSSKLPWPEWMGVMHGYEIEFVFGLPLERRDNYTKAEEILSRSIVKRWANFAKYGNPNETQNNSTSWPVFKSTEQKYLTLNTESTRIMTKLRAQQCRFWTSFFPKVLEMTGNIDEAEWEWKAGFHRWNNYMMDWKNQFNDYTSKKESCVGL

[4] = Acute toxicity in Kunming mouse assessed as damage in spleen at 50 to 1000 mg/kg measured after 7 days; format: organism-based; conditions: in vivo, 168 h, dose 50-1000 mg/kg, time 7 day
[5] = Acute toxicity in Kunming mouse assessed as damage in liver at 50 to 1000 mg/kg measured after 7 days; format: organism-based; conditions: in vivo, 168 h, dose 50-1000 mg/kg, time 7 day
[6] = Effect on tau protein level in mouse HT22 cells transfected with pRK5-GFP-Tau P301L plasmid assessed as fluorescence intensity at 20 uM by fluorescence microscopy (reference value: 33.6); format: functional, HT-22
HT-22 [7] = test: Down regulation of tau protein expression in mouse HT22 cells transfected with pRK5-GFP-Tau P301L plasmid at 2.5 to 20 uM by Western blot analysis; format: functional, cell-based; conditions: dose 2.5-20 µM
[8] = Effect on APP protein level in mouse HT22 cells transfected with pEGFP-N1-APP plasmid assessed as fluorescence intensity at 10 uM by fluorescence microscopy (reference value: 33.2); format: functional, HT-22
HT-22 [9] = test: Down regulation of APP protein expression in mouse HT22 cells transfected with pEGFP-N1-APP plasmid at 10 to 20 uM by Western blot analysis; format: functional, cell-based; conditions: dose 10-20 µM
[10] = Toxicity in Zebrafish assessed as induction of yolk sac absorption delay at 1.04 ug/ml relative to control; set-up: species or system Danio rerio; conditions: in vivo, at 1.04 µg/mL
[11] = Toxicity in Zebrafish assessed as slow blood flow at 6.25 ug/ml relative to control; format: tissue-based, Danio rerio; conditions: at 6.25 µg/mL
[12] = Toxicity in Zebrafish assessed as death at 6.25 ug/ml relative to control; set-up: species or system Danio rerio; conditions: in vivo, at 6.25 µg/mL, read-out: Activity
[13] = Toxicity in AlCl3-induced Zebrafish model of Alzheimer's disease assessed as mortality at 10 ug/ml relative to control; set-up: species or system Danio rerio; conditions: in vivo, at 10 µg/mL
Danio rerio [14] = species on record: Danio rerio; test: Antialzheimer activity in AlCl3-induced Zebrafish model of Alzheimer's disease assessed as motility distance at […] (reference value: 5346 mm); format: functional; conditions: dose 0.11 µg/ml
Danio rerio [15] = species on record: Danio rerio; test: Antialzheimer activity in AlCl3-induced Zebrafish model of Alzheimer's disease assessed as motility distance at 0.33 ug/ml (reference value: 5346 mm); format: functional; conditions: dose 0.33 µg/ml
Danio rerio [16] = species on record: Danio rerio; test: Antialzheimer activity in AlCl3-induced Zebrafish model of Alzheimer's disease assessed as increase in motility distance at 0.33 ug/ml relative to control; format: functional; conditions: dose 0.33 µg/ml
Danio rerio [17] = species on record: Danio rerio; test: Antialzheimer activity in AlCl3-induced Zebrafish model of Alzheimer's disease assessed as increase in motility distance at 1 ug/ml relative to control; format: functional; conditions: dose 1 µg/ml
Danio rerio [18] = species on record: Danio rerio; test: Antialzheimer activity in AlCl3-induced Zebrafish model of Alzheimer's disease assessed as increase in motility speed at […] relative to control; format: functional; conditions: dose 0.11 µg/ml
Danio rerio [19] = species on record: Danio rerio; test: Protection against amyloid beta (1 to 42)-induced zebrafish model of vascular injury assessed as vascular injury rate at 1 ug/ml (reference value: 73.3%); format: functional; conditions: dose 1 µg/ml
Danio rerio [20] = species on record: Danio rerio; test: Protection against amyloid beta (1 to 42)-induced zebrafish model of vascular injury assessed as reduction in vascular injury at 1 ug/ml relative to control; format: functional; conditions: dose 1 µg/ml
[21] = Acute toxicity in Kunming mouse assessed as hypokinesia at 250 to 1000 mg/kg; format: organism-based; conditions: in vivo, dose 250-1000 mg/kg
[22] = Acute toxicity in Kunming mouse assessed as lethargy at 250 to 1000 mg/kg; format: organism-based; conditions: in vivo, dose 250-1000 mg/kg
[23] = Acute toxicity in Kunming mouse assessed as piloerection at 250 to 1000 mg/kg measured after 4 hrs; format: organism-based; conditions: in vivo, dose 250-1000 mg/kg
[24] = Effect on spontaneous alteration behavior in mouse assessed as change in total arm entry at 5 to 20 mg/kg by Y-maze test; format: ADME, organism-based; conditions: in vivo, dose 5-20 mg/kg
Mus musculus [25] = test: Improvement in brain cholinergic activity in scopolamine-induced mouse model of amnesia assessed as change in AChE vitality at 20 mg/kg (reference value: 0.105 U/mg); format: functional
Mus musculus [26] = test: Improvement in brain cholinergic activity in scopolamine-induced mouse model of amnesia assessed as change in AChE vitality at 6 mg/kg (reference value: 0.105 U/mg); format: functional
Mus musculus [27] = species on record: Mus musculus; test: Improvement in brain cholinergic activity in scopolamine-induced mouse model of amnesia assessed as increase in ChAT vitality; format: functional, organism-based
Mus musculus [28] = test: Improvement in brain cholinergic activity in scopolamine-induced mouse model of amnesia assessed as change in ChAT vitality at 20 mg/kg (reference value: 28.8 U/g); format: functional
[29] = Drug metabolism in human liver microsomes by HPLC analysis; format: ADME, Microsome
[30] = Drug metabolism in rat liver microsomes by HPLC analysis; format: ADME, Microsome

Compound: CCN(C)C(=O)Oc1ccc(/C=C/C(=O)N2CCc3ccccc3C2)cc1OC
- Flu intensity [1]: 32.6
- viability at 10 µM (SH-SY5Y): 83.8%
- inhibition [2]: 58.2%
- IC50 [3]: 15.9 µM
- Ratio IC50 (Homo sapiens): 3
- Activity (Cholinesterase): 48.2%
- Activity [4]: Non-Toxic
- Activity [5]: Non-Toxic
- Flu intensity [6]: 17.9
- Activity (HT-22 [7]): Active
- Flu intensity [8]: 13.3
- Activity (HT-22 [9]): Active
- Activity [10]: 13.3%
- Activity [11]: 16.7%
- mortality at 6.25 ug/ml [12]: 13.3%
- mortality at 10 ug/ml [13]: 0%
- Activity (Danio rerio [14]): <=6418 mm
- Activity (Danio rerio [15]): 6763 mm
- Efficacy (Danio rerio [16]): 72.6%
- Efficacy (Danio rerio [17]): 85.9%
- Efficacy (Danio rerio [18]): 57.3%
- Activity (Danio rerio [19]): 53.3%
- Efficacy (Danio rerio [20]): 27.3%
- Activity [21]: Toxic
- Activity [22]: Toxic
- Activity [23]: Non-Toxic
- Activity [24]: Non-Toxic
- Activity (Mus musculus [25]): 0.1 U/mg
- Activity (Mus musculus [26]): 0.098 U/mg
- Activity (Mus musculus [27]): Dose-dependent effect
- Activity (Mus musculus [28]): 54.1 U/g
- Drug metabolism [29]: Metabolite_Detected
- Drug metabolism [30]: Metabolite_Detected
